According to PubChem BioAssay (NCI):
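Five concentrations, 48 hours, 96-well plates. At the TGI there is no net growth.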

Tests used:
Experiment in all cases: NCI-60 cell line screen, 48 h
NCI-H226 lung = system: NCI-H226 lung
OVCAR-4 ovarian = system: OVCAR-4 ovarian
SF-539 CNS = system: SF-539 CNS
DU-145 prostate = system: DU-145 prostate
KM12 colon = system: KM12 colon
MDA-MB-231 breast = system: MDA-MB-231 breast
MDA-N = system: MDA-N
HCC-2998 colon = system: HCC-2998 colon
K-562 leukemia = system: K-562 leukemia
HCT-116 colon = system: HCT-116 colon
UACC-62 melanoma = system: UACC-62 melanoma
HT29 colon = system: HT29 colon
HOP-92 NSCLC = system: HOP-92 NSCLC
MCF7 breast = system: MCF7 breast
NCI/ADR-RES ovarian = system: NCI/ADR-RES ovarian
SN12C renal = system: SN12C renal
T-47D breast = system: T-47D breast
RXF 393 renal = system: RXF 393 renal
UACC-257 melanoma = system: UACC-257 melanoma
A549 NSCLC = system: A549 NSCLC
PC-3 prostate = system: PC-3 prostate
HOP-62 NSCLC = system: HOP-62 NSCLC
SK-MEL-2 melanoma = system: SK-MEL-2 melanoma
NCI-H23 lung = system: NCI-H23 lung
U251 CNS = system: U251 CNS
M14 melanoma = system: M14 melanoma
MOLT-4 leukemia = system: MOLT-4 leukemia
MALME-3M melanoma = system: MALME-3M melanoma
SF-295 CNS = system: SF-295 CNS
LOX IMVI melanoma = system: LOX IMVI melanoma
786-0 renal = system: 786-0 renal
SR leukemia = system: SR leukemia
RPMI-8226 leukemia = system: RPMI-8226 leukemia
SNB-19 CNS = system: SNB-19 CNS
OVCAR-8 ovarian = system: OVCAR-8 ovarian
IGROV1 ovarian = system: IGROV1 ovarian
BT-549 breast = system: BT-549 breast
SW-620 colon = system: SW-620 colon
HCT-15 colon = system: HCT-15 colon
CAKI-1 renal = system: CAKI-1 renal
SK-MEL-5 melanoma = system: SK-MEL-5 melanoma
UO-31 renal = system: UO-31 renal
MDA-MB-435 = system: MDA-MB-435
EKVX NSCLC = system: EKVX NSCLC
CCRF-CEM leukemia = system: CCRF-CEM leukemia
COLO 205 colon = system: COLO 205 colon
OVCAR-5 ovarian = system: OVCAR-5 ovarian
OVCAR-3 ovarian = system: OVCAR-3 ovarian
NCI-H460 lung = system: NCI-H460 lung
SK-MEL-28 melanoma = system: SK-MEL-28 melanoma
HL-60(TB) leukemia = system: HL-60(TB) leukemia
ACHN renal = system: ACHN renal
HS 578T breast = system: HS 578T breast
SF-268 CNS = system: SF-268 CNS
TK-10 renal = system: TK-10 renal
SK-OV-3 ovarian = system: SK-OV-3 ovarian
A498 renal = system: A498 renal
SNB-75 CNS = system: SNB-75 CNS
NCI-H522 lung = system: NCI-H522 lung

With COc1cc2c(cc1OC)C(=O)/C(=C/c1ccc(O)cc1)CC2 the TGI (NCI-H226 lung) was > 10 µM, the TGI (OVCAR-4 ovarian) was > 10 µM and the TGI (SF-539 CNS) was > 10 µM. The TGI (DU-145 prostate) was > 10 µM, the TGI (KM12 colon) was > 10 µM and the TGI (MDA-MB-231 breast) was > 10 µM. For the same molecule, the TGI (MDA-N) was > 10 µM, the TGI (HCC-2998 colon) was > 10 µM and the TGI (K-562 leukemia) was > 10 µM. For the same molecule, the TGI (HCT-116 colon) was > 10 µM, the TGI (UACC-62 melanoma) was > 10 µM and the TGI (HT29 colon) was > 10 µM. The TGI (HOP-92 NSCLC) was > 10 µM, the TGI (MCF7 breast) was > 10 µM and the TGI (NCI/ADR-RES ovarian) was > 10 µM. For the same molecule, the TGI (SN12C renal) was > 10 µM, the TGI (T-47D breast) was > 10 µM and the TGI (RXF 393 renal) was > 10 µM. For the same molecule, the TGI (UACC-257 melanoma) was > 10 µM, the TGI (A549 NSCLC) was > 10 µM and the TGI (PC-3 prostate) was > 10 µM. For the same molecule, the TGI (HOP-62 NSCLC) was > 10 µM, the TGI (SK-MEL-2 melanoma) was > 10 µM and the TGI (NCI-H23 lung) was > 10 µM. For the same molecule, the TGI (U251 CNS) was > 10 µM, the TGI (M14 melanoma) was > 10 µM and the TGI (MOLT-4 leukemia) was > 10 µM. For the same molecule, the TGI (MALME-3M melanoma) was > 10 µM, the TGI (SF-295 CNS) was > 10 µM and the TGI (LOX IMVI melanoma) was > 10 µM. For the same molecule, the TGI (786-0 renal) was > 10 µM, the TGI (SR leukemia) was > 10 µM and the TGI (RPMI-8226 leukemia) was > 10 µM. For the same molecule, the TGI (SNB-19 CNS) was > 10 µM, the TGI (OVCAR-8 ovarian) was > 10 µM and the TGI (IGROV1 ovarian) was > 10 µM. For the same molecule, the TGI (BT-549 breast) was > 10 µM, the TGI (SW-620 colon) was > 10 µM and the TGI (HCT-15 colon) was > 10 µM. For the same molecule, the TGI (CAKI-1 renal) was > 10 µM, the TGI (SK-MEL-5 melanoma) was > 10 µM and the TGI (UO-31 renal) was 4.32 µM. The TGI (MDA-MB-435) was > 10 µM, the TGI (EKVX NSCLC) was > 10 µM and the TGI (CCRF-CEM leukemia) was > 10 µM. For the same molecule, the TGI (COLO 205 colon) was > 10 µM, the TGI (OVCAR-5 ovarian) was > 10 µM and the TGI (OVCAR-3 ovarian) was > 10 µM. The TGI (NCI-H460 lung) was > 10 µM, the TGI (SK-MEL-28 melanoma) was > 10 µM and the TGI (HL-60(TB) leukemia) was > 10 µM. The TGI (ACHN renal) was > 10 µM, the TGI (HS 578T breast) was > 10 µM and the TGI (SF-268 CNS) was > 10 µM. The TGI (TK-10 renal) was > 10 µM and the TGI (SK-OV-3 ovarian) was > 10 µM.
For COc1ccccc1NC(=S)N/N=C/c1ccccn1, the TGI (NCI-H226 lung) was > 35.9 µM, the TGI (OVCAR-4 ovarian) was > 100 µM and the TGI (SF-539 CNS) was 5.07 µM. For the same molecule, the TGI (DU-145 prostate) was 19 µM, the TGI (KM12 colon) was > 31.6 µM and the TGI (MDA-MB-231 breast) was > 60.1 µM. The TGI (MDA-N) was > 46.4 µM, the TGI (HCC-2998 colon) was 32.9 µM and the TGI (K-562 leukemia) was > 31.6 µM. For the same molecule, the TGI (HCT-116 colon) was 0.639 µM, the TGI (UACC-62 melanoma) was 3.75 µM and the TGI (HT29 colon) was > 31.6 µM. The TGI (HOP-92 NSCLC) was 29 µM, the TGI (MCF7 breast) was > 100 µM and the TGI (NCI/ADR-RES ovarian) was 0.237 µM. The TGI (SN12C renal) was 5.15 µM, the TGI (T-47D breast) was 1.95 µM and the TGI (RXF 393 renal) was 94.1 µM. For the same molecule, the TGI (UACC-257 melanoma) was 0.416 µM, the TGI (A549 NSCLC) was 34.7 µM and the TGI (PC-3 prostate) was > 46.4 µM. For the same molecule, the TGI (HOP-62 NSCLC) was 25.6 µM, the TGI (SK-MEL-2 melanoma) was 29.5 µM and the TGI (NCI-H23 lung) was 6.01 µM. For the same molecule, the TGI (U251 CNS) was 12.5 µM, the TGI (M14 melanoma) was 7.69 µM and the TGI (MALME-3M melanoma) was > 24.3 µM. For the same molecule, the TGI (SF-295 CNS) was > 31.6 µM, the TGI (LOX IMVI melanoma) was 6.8 µM and the TGI (786-0 renal) was 13 µM. For the same molecule, the TGI (RPMI-8226 leukemia) was > 22.6 µM, the TGI (SNB-19 CNS) was > 46.4 µM and the TGI (OVCAR-8 ovarian) was 12.9 µM. For the same molecule, the TGI (BT-549 breast) was 77 µM, the TGI (SW-620 colon) was > 46.4 µM and the TGI (HCT-15 colon) was 29 µM. For the same molecule, the TGI (CAKI-1 renal) was 16.8 µM, the TGI (SK-MEL-5 melanoma) was 2.71 µM and the TGI (UO-31 renal) was 24.4 µM. For the same molecule, the TGI (MDA-MB-435) was > 46.4 µM, the TGI (EKVX NSCLC) was 5.08 µM and the TGI (CCRF-CEM leukemia) was > 23.1 µM. The TGI (COLO 205 colon) was > 16 µM, the TGI (OVCAR-5 ovarian) was > 46.4 µM and the TGI (A498 renal) was 5.04 µM. For the same molecule, the TGI (NCI-H460 lung) was 6.12 µM, the TGI (SNB-75 CNS) was 24.4 µM and the TGI (SK-MEL-28 melanoma) was > 46.4 µM. The TGI (HL-60(TB) leukemia) was 0.693 µM, the TGI (ACHN renal) was 8.9 µM and the TGI (NCI-H522 lung) was 10.9 µM. The TGI (HS 578T breast) was > 46.4 µM, the TGI (SF-268 CNS) was 3.59 µM and the TGI (TK-10 renal) was > 46.4 µM. It also gave a TGI (SK-OV-3 ovarian) of 34.8 µM.
